Assay [1] concerns the target T1, 5HT-Transporter (Homo sapiens, UniProt P31645).
T1 construct: Human platelet membranes (Oceanix Biosciences Corporation, Hanover, Md., USA) were thawed; tissue Oceanix Biosciences Corporation; host or cells: human platelet membranes
Briefly: Binding experiment for the 5HT-transporter ([3H]paroxetine, human platelet membranes). The settings on record: [3H]paroxetine 0.5 nM, read-out: h-5HTT pIC50 (converted).

In assay [2] the target is T2, hα2C receptor (Homo sapiens, UniProt P18825).
T2 construct: expressed in transfected cells
T2 sequence (P18825 1-462): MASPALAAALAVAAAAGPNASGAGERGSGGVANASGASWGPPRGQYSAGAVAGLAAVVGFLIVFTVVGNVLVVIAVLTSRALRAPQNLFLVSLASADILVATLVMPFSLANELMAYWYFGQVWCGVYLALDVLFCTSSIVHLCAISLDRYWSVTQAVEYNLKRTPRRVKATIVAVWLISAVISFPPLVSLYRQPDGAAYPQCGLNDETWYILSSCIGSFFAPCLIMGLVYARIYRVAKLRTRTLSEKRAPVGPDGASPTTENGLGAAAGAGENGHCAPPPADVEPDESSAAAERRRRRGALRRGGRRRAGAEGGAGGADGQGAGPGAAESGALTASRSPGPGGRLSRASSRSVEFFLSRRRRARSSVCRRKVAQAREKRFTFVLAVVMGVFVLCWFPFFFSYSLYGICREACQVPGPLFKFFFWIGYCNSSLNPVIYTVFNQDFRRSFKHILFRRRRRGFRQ
Description: Radioligand binding experiment for α2C-adrenoceptor ([3H]-raulwolscine, CHO cell membranes). The note with it: [3H]raulwolscine 1 nM, membranes of CHO cells transfected with human α2C receptor; read-out: h-α2C pIC50 (converted).

Assay [3] addresses T3, hα2A receptor (Homo sapiens, UniProt P08913).
T3 construct: expressed in transfected cells
T3 sequence (P08913 1-465): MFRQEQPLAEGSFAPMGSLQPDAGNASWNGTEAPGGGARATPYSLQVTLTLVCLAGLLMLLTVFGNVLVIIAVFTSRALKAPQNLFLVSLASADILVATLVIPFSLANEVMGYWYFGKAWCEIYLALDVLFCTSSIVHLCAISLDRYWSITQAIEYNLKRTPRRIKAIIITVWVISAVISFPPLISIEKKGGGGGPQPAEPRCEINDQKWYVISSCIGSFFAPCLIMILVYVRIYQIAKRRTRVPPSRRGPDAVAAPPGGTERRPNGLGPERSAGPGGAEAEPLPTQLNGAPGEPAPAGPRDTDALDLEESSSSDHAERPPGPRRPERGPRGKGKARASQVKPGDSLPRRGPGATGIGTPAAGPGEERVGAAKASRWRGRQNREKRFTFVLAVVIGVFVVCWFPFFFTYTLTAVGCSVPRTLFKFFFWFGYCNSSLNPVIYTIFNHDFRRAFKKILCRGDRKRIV
Briefly: Radioligand binding experiment for hα2A receptor ([3H]-raulwolscine, CHO cell membranes). The note with it: [3H]raulwolscine 1 nM, membranes of CHO cells transfected with human α2A receptor; read-out: h-α2A pIC50 (converted).

T1 sequence (P31645 whole entry): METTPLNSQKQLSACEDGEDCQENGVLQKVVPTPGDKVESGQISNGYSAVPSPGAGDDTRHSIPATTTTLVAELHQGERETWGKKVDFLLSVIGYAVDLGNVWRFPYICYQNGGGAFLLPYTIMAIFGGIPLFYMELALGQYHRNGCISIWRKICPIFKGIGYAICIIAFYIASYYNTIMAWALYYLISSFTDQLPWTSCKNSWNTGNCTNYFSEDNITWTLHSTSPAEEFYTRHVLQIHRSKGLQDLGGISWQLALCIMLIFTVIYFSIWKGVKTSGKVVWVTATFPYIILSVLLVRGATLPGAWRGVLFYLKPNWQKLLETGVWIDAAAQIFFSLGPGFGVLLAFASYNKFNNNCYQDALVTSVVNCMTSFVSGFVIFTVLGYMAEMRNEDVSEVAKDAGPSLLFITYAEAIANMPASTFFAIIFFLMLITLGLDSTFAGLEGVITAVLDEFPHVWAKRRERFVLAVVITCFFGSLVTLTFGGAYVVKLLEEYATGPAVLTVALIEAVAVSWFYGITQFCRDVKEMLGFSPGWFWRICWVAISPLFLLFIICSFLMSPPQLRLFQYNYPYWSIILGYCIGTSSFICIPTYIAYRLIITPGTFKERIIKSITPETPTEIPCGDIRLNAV

With `CC(=O)Cn1ccnc(NC2CCN(CCOc3ccccc3)CC2)c1=O` [Compound 5-4], the IC50 in assay [1] was more than 10000 nM; in assay [2], 31.6 nM; in assay [3], 126 nM.
As for `O=c1c(NC2CCN(CCOc3ccccc3)CC2)nccn1-c1ccc(N2CCCCC2)cc1` [Compound 2-4], the values for the IC50 in assay [1], in assay [2] and in assay [3] were 2510 nM, 20 nM and 200 nM, respectively.
Regarding `COCCCn1ccnc(N2CCN(CCOc3ccc(F)cc3)CC2)c1=O` [Compound 9-1], the IC50 in assay [1] was more than 10000 nM; in assay [2], 1000 nM; in assay [3] it was 1260 nM.
In the case of `O=c1c(NC2CCN(CCOc3ccccc3)CC2)nccn1CC1CCCCO1` (stereo not drawn) [Compound 6-1], the IC50 in assay [1] was more than 10000 nM; in assay [2], 39.8 nM; in assay [3] it was 501 nM.
In the case of `O=c1c(NC2CCN(CCOc3ccccc3)CC2)nccn1CCN1CCOCC1` [Compound 2-13], the IC50 in assay [1] is more than 10000 nM; in assay [2], 20 nM; in assay [3] it was 631 nM.

The values above are taken from patent US20090281099A1, “SUBSTITUTED PYRAZINONE DERIVATIVES FOR USE AS A MEDICINE” (priority 2006, published 2009).
